Where two headings read alike, the source gives them in different places.
What was measured:
[1] = tested on: mouse peritoneal macrophages; assay: Suppression of foaming of macrophages (cholesterol ester synthesis) in vitro; assay type: cell-based, mouse (female ICR); settings: 5 μM, 16 hours, relative to control as 100%, smaller value = more potent suppression; for activity at 5 µM: Mus musculus, Peritoneal macrophage, read-out: Rate of CE synthesis (%)
Protocol: Activity of the compounds of the present invention for suppressing the foaming of macrophages
(§1) Activity of the compounds of the present invention for suppressing the foaming of macrophages, which triggers arterial sclerosis, was examined by an in vitro experiment using mouse peritoneal macrophages. 15-Week old female ICR mice (Nippon SLC) were subjected to bleeding by cutting off their cervicalis, and Hanks buffer (Nippon Seiyaku) was injected into their peritoneal cavities. After abdominal regions of the mice were massaged, the buffer was recovered immediately, and then the resulting buffer was centrifuged at 1,000 r.p.m. for five minutes to collect peritoneal macrophages. Then, the collected macrophages were suspended in GTI medium (Wako Pure Chemical Industries), and inoculated onto a 24-well microtiter plate. After the macrophages were cultivated at 37° C. under 5% CO2 for two hours, the culture medium was changed with Dulbecco Modified Eagle Medium (MEM, Nippon Seiyaku). The macrophages were further cultivated at 37° C. under 5% CO2 for 16 hours, and then a test compound and liposomes were added to the culture.
1) Test compound: dissolved in DMSO (Wako Pure Chemical Industries),
PC: Phosphatidylcholine (Funakoshi);
PS: Phosphatidylserine (Funakoshi);
DCP: Dicetylphosphate (Funakoshi);
CHOL: Cholesterol (Sigma)
(§2) After cultivation was further continued at 37° C. under 5% CO2 for 16 hours, lipid fraction was extracted with chloroform and methanol. The extracted lipid fraction was dissolved in isopropyl alcohol, and the produced cholesterol ester (CE) was quantified by an enzymatic luminescence method. Yield of the cholesterol ester was calculated as a relative ratio based on yield of the control as 100% where no test compound was added. Cytotoxicity was examined microscopically by observing morphological alteration of cells. In the tables, compound numbers correspond to those of the compounds of present invention described in the examples.

[2] = tested on: mouse peritoneal macrophages; assay: Cytotoxicity examined microscopically (morphological alteration of cells); assay type: cell-based, mouse (female ICR); settings: 5 μM, observed microscopically
Protocol: as §1, §2

For `CNS(=O)(=O)c1ccc2c(c1)nc(SCCCCCSc1nc3ccccc3[nH]1)n2C` [Compound A23, 1-(2'-(1'-methyl-5'-methylsulfamoylbenzimidazolyl)thio)-5-(2"-benzimidazolylthio)pentane], the activity at 5 µM ([1]; Table 3) was 34% and the Cytotoxicity ([2]; Table 3) was “Not observed”.
`Cc1ccc2[nH]c(SCCCCCSc3nc4ccccc4s3)nc2c1` [Compound A36] was tested, and the activity at 5 µM ([1]; Table 3) was 21% and the Cytotoxicity ([2]; Table 3) was “Not observed”.
In the case of `CN(C)C(=O)c1nnc(SCCCCCSc2nc3ccccc3[nH]2)s1` [Compound B18], the activity at 5 µM ([1]; Table 4) is reported as 35% and the Cytotoxicity ([2]; Table 4) is reported as “Not observed”.
With `CCOC(=O)c1ccc2[nH]c(SCCCCCSc3ccccn3)nc2c1` [Compound B36] the activity at 5 µM ([1]; Table 4) was 26% and the Cytotoxicity ([2]; Table 4) was “Not observed”.
For `Oc1ccc2[nH]c(SCCCCCSc3nc4ccccc4[nH]3)nc2c1` [Compound A6, 1-(2'-benzimidazolylthio)-5-(2"-(5"-hydroxybenzimidazolyl)thio)pentane], the activity at 5 µM ([1]; Table 3) was 46% and the Cytotoxicity ([2]; Table 3) was “Not observed”.
`c1ccc2nc(SCCCCCSc3nc4ccccc4[nH]3)ccc2c1` [Compound B57] was tested, and the activity at 5 µM ([1]; Table 4) was 26% and the Cytotoxicity ([2]; Table 4) was “Not observed”.
In the case of `Cc1ccnc(SCCCCCSc2nc3ccccc3[nH]2)n1` [Compound B50], the activity at 5 µM ([1]; Table 4) is reported as 22% and the Cytotoxicity ([2]; Table 4) is reported as “Not observed”.
`N#Cc1ccc2[nH]c(SCCCCCSc3nc4ccccc4[nH]3)nc2c1` [Compound A17, 1-(2'-(5'-cyanobenzimidazolyl)thio)-5-(2"-benzimidazolylthio)pentane] was tested, and the activity at 5 µM ([1]; Table 3) was 24% and the Cytotoxicity ([2]; Table 3) was “Not observed”.
`c1ccc(SCCCCCCCc2nc3ccccc3[nH]2)nc1` [Compound B47] was tested, and the activity at 5 µM ([1]; Table 4) was 23% and the Cytotoxicity ([2]; Table 4) was “Not observed”.
In the case of `CS(=O)(=O)Nc1ccc2[nH]c(SCCCCCSc3nc4ccccc4[nH]3)nc2c1` [Compound A7, 1-(2'-benzimidazolylthio)-5-(2"-(5"-methanesulfonylamino-benzimidazolyl)thio)pentane], the activity at 5 µM ([1]; Table 3) is reported as 22% and the Cytotoxicity ([2]; Table 3) is reported as “Not observed”.
In the case of `Cc1ccc2[nH]c(SCCCCCSc3nc4ccccc4[nH]3)nc2c1` [Compound A1, 1-(2'-(5'-methylbenzimidazolyl)thio)-5-(2"-benzimidazolylthio)pentane], the activity at 5 µM ([1]; Table 3) is reported as 41% and the Cytotoxicity ([2]; Table 3) is reported as “Not observed”.
In the case of `Cc1cc2nc(SCCCCCSc3nc4cc(Cl)c(Cl)cc4[nH]3)[nH]c2cc1C` [Compound A15, 1-(2'-(5',6'-dichlorobenzimidazolyl)thio)-5-(2"-(5",6"-dimethylbenzimidazolyl)thio)pentane], the activity at 5 µM ([1]; Table 3) is reported as 36% and the Cytotoxicity ([2]; Table 3) is reported as “Not observed”.
With `Cn1c(=O)c2nc(SCCCCCSc3nc4ccccc4[nH]3)[nH]c2n(C)c1=O` [Compound B13] the activity at 5 µM ([1]; Table 4) was 26% and the Cytotoxicity ([2]; Table 4) was “Not observed”.
In the case of `c1ccc2[nH]c(CCCCCCCCCCCSc3nc4ccccc4[nH]3)nc2c1` [Compound A32, 2-(11-(2'-benzimidazolylthio)undecyl)benzimidazole], the activity at 5 µM ([1]; Table 3) is reported as 62% and the Cytotoxicity ([2]; Table 3) is reported as “Not observed”.
`Cc1ccc2[nH]c(SCCOCCOCCSc3nc4ccccc4[nH]3)nc2c1` [Compound A22] was tested, and the activity at 5 µM ([1]; Table 3) was 20% and the Cytotoxicity ([2]; Table 3) was “Not observed”.
`c1ccc(SCCCCCCCCSc2nc3ccccc3[nH]2)nc1` [Compound B32] was tested, and the activity at 5 µM ([1]; Table 4) was 37% and the Cytotoxicity ([2]; Table 4) was “Not observed”.
In the case of `Cc1ccc2[nH]c(SCCCCCSc3nc4cc(Cl)c(Cl)cc4[nH]3)nc2c1` [Compound A14, 1-(2'-(5',6'-dichlorobenzimidazolyl)thio)-5-(2"-(5"-methylbenzimidazolyl)thio)pentane], the activity at 5 µM ([1]; Table 3) is reported as 42% and the Cytotoxicity ([2]; Table 3) is reported as “Not observed”.
With `Cn1c(CCCCCSc2nc3ccccc3n2C)nc2ccccc21` [Compound A26, 1-methyl-2-(5-(2'-(1-methylbenzimidazolyl)thio)pentyl)benzimidazole] the activity at 5 µM ([1]; Table 3) was 35% and the Cytotoxicity ([2]; Table 3) was “Not observed”.
In the case of `c1ccc2[nH]c(SCCCCCSc3ncnc4cn[nH]c34)nc2c1` [Compound B60], the activity at 5 µM ([1]; Table 4) is reported as 14% and the Cytotoxicity ([2]; Table 4) is reported as “Not observed”.
`COc1ccc2[nH]c(SCCCCCSc3nc4ccccc4[nH]3)nc2c1` [Compound A5, 1-(2'-benzimidazolylthio)-5-(2"-(5"-methoxybenzimidazolyl)thio)pentane] was tested, and the activity at 5 µM ([1]; Table 3) was 39% and the Cytotoxicity ([2]; Table 3) was “Not observed”.
For `Cn1ccnc1SCCCCCSc1nc2ccccc2[nH]1` [Compound B2], the activity at 5 µM ([1]; Table 4) was 16% and the Cytotoxicity ([2]; Table 4) was “Not observed”.
For `CCC(=O)n1c(SCCCCCSc2ccccn2)nc2ccccc21` [Compound B65, 5-(2'-(1'-propionylbenzimidazolyl)thio)-1-(2"-pyridylthio)pentane], the activity at 5 µM ([1]; Table 4) was 22% and the Cytotoxicity ([2]; Table 4) was “Not observed”.
For `Clc1cc2nc(CCCCCSc3ccccn3)[nH]c2cc1Cl` [Compound B44], the activity at 5 µM ([1]; Table 4) was 51% and the Cytotoxicity ([2]; Table 4) was “Not observed”.
With `Cc1cc(O)nc(SCCCCCSc2nc3ccccc3[nH]2)n1` [Compound B52] the activity at 5 µM ([1]; Table 4) was 49% and the Cytotoxicity ([2]; Table 4) was “Not observed”.
In the case of `c1ccc2[nH]c(SCCCCCSc3nc4ccccc4s3)nc2c1` [Compound A33, 1-(2'-benzimidazolylthio)-5-(2"-benzothiazolylthio)pentane], the activity at 5 µM ([1]; Table 3) is reported as 13% and the Cytotoxicity ([2]; Table 3) is reported as “Not observed”.
`Cc1ccc2[nH]c(SCCCCCSc3nc4cc(Cl)ccc4[nH]3)nc2c1` [Compound A3, 1-(2-(5'-chlorobenzimidazolyl)thio)-5-(2"-(5"-methylbenzimidazolyl)thio)pentane] was tested, and the activity at 5 µM ([1]; Table 3) was 36% and the Cytotoxicity ([2]; Table 3) was “Not observed”.
For `Cc1cc(C)nc(SCCCCCSc2nc3ccccc3[nH]2)n1` [Compound B51], the activity at 5 µM ([1]; Table 4) was 24% and the Cytotoxicity ([2]; Table 4) was “Not observed”.
In the case of `c1ccc2[nH]c(SCCCCCSc3nnc(SCCn4ccnc4)s3)nc2c1` [Compound B21], the activity at 5 µM ([1]; Table 4) is reported as 11% and the Cytotoxicity ([2]; Table 4) is reported as “Not observed”.
In the case of `c1ccc(CCCCCSc2nc3ccccc3[nH]2)nc1` [Compound B43, 1-(2'-benzimidazolylthio)-5-(2"-pyridyl)pentane], the “Rate of CE synthesis (%)” value ([1]; Table 4) is reported as 12% and the Cytotoxicity ([2]; Table 4) is reported as “Not observed”.
With `Cc1cc2nc(SCCCCCSc3nc4ccccc4o3)[nH]c2cc1C` [Compound A38] the activity at 5 µM ([1]; Table 3) was 16% and the Cytotoxicity ([2]; Table 3) was “Not observed”.
For `CC1(C)COC(SCCCCCSc2nc3ccccc3[nH]2)=N1` [Compound B23], the activity at 5 µM ([1]; Table 4) was 38% and the Cytotoxicity ([2]; Table 4) was “Not observed”.
With `CC(=O)Nc1nnc(SCCCCCSc2nc3ccccc3[nH]2)s1` [Compound B17] the activity at 5 µM ([1]; Table 4) was 18% and the Cytotoxicity ([2]; Table 4) was “Not observed”.
For `c1ccc(-n2nnnc2SCCCCCSc2nc3ccccc3[nH]2)cc1` [Compound B12], the activity at 5 µM ([1]; Table 4) was 14% and the Cytotoxicity ([2]; Table 4) was “Not observed”.
`c1ccc2[nH]c(SCCCCCSc3nc4ccccc4o3)nc2c1` [Compound A37, 1-(2'-benzimidazolylthio)-5-(2"-benzoxazolylthio)pentane] was tested, and the activity at 5 µM ([1]; Table 3) was 13% and the Cytotoxicity ([2]; Table 3) was “Not observed”.
`Oc1ncnc2[nH]c(SCCCCCSc3nc4ccccc4[nH]3)nc12` [Compound B14] was tested, and the activity at 5 µM ([1]; Table 4) was 48% and the Cytotoxicity ([2]; Table 4) was “Not observed”.
With `Oc1cc(SCCCCCSc2nc3cc(Cl)c(Cl)cc3[nH]2)nc2ccccc12` [Compound B58] the activity at 5 µM ([1]; Table 4) was 18% and the Cytotoxicity ([2]; Table 4) was “Not observed”.
With `c1ccc2[nH]c(SCCCCCSc3ncnc4nc[nH]c34)nc2c1` [Compound B59] the activity at 5 µM ([1]; Table 4) was 9.2% and the Cytotoxicity ([2]; Table 4) was “Not observed”.
In the case of `Cc1cc2nc(CCCCCSc3nc4ccccc4[nH]3)[nH]c2cc1C` [Compound A28, 2-(5-(2'-benzimidazolylthio)pentyl)-5,6-dimethylbenzimidazole], the activity at 5 µM ([1]; Table 3) is reported as 49% and the Cytotoxicity ([2]; Table 3) is reported as “Not observed”.
For `CCC(=O)n1c(CCCCCSc2nc3ccccc3n2C(=O)CC)nc2ccccc21` [Compound A24, 1-propionyl-2-(5-(2'-(1-propionylbenzimidazolyl)thio)pentyl)benzimidazole], the activity at 5 µM ([1]; Table 3) was 40% and the Cytotoxicity ([2]; Table 3) was “Not observed”.
With `Oc1ccnc(SCCCCCSc2nc3ccccc3[nH]2)c1` [Compound B53] the activity at 5 µM ([1]; Table 4) was 52% and the Cytotoxicity ([2]; Table 4) was “Not observed”.
With `CC1=CC(C)(C)NC(SCCCCCSc2nc3ccccc3[nH]2)=N1` [Compound B55] the activity at 5 µM ([1]; Table 4) was 52% and the Cytotoxicity ([2]; Table 4) was “Not observed”.
In the case of `Cc1cc2nc(SCCCCCSc3nc4ccccc4[nH]3)[nH]c2cc1C` [Compound A10, 1-(2'-(5',6'-dimethylbenzimidazolyl)thio)-5-(2"-benzimidazolylthio)pentane], the activity at 5 µM ([1]; Table 3) is reported as 20% and the Cytotoxicity ([2]; Table 3) is reported as “Not observed”.
With `Cc1ccnc(SCCCCCSc2nc3ccccc3[nH]2)c1` [Compound B41] the activity at 5 µM ([1]; Table 4) was 19% and the Cytotoxicity ([2]; Table 4) was “Not observed”.
`CSc1nc(C)cc(SCCCCCSc2nc3ccccc3[nH]2)n1` [Compound B56] was tested, and the activity at 5 µM ([1]; Table 4) was 18% and the Cytotoxicity ([2]; Table 4) was “Not observed”.
For `Cc1ccc2[nH]c(SCCCCCSc3ccccn3)nc2c1` [Compound B35], the activity at 5 µM ([1]; Table 4) was 46% and the Cytotoxicity ([2]; Table 4) was “Not observed”.

Source: patent US6174907A, “Benzimidazole compounds containing 1,2,4-triazole ring, and compositions and methods of use containing the same” (Fuji Photo Film Co., Ltd., priority 1995, dated 2001)
